Experimental data from patent publication US8546429B2, “1,2,3-trisubstituted aryl and heteroaryl derivatives as modulators of metabolism and the prophylaxis and treatment of disorders related thereto” (Arena Pharmaceuticals, Inc., priority 2003, dated 2013).
pEC50: −log10 of the molar value.

Legend:
RUP3 [1] = molecular target: T1, RUP3 (Homo sapiens, UniProt Q8TDV5); assay: RUP3 dose responses in melanophores; assay type: cell-based; settings: melanophores transfected with RUP3 expression vector; Table 8
T1 construct: expressed in transfected cells; host or cells: melanophores, electroporated
T1 sequence (Q8TDV5 1-335): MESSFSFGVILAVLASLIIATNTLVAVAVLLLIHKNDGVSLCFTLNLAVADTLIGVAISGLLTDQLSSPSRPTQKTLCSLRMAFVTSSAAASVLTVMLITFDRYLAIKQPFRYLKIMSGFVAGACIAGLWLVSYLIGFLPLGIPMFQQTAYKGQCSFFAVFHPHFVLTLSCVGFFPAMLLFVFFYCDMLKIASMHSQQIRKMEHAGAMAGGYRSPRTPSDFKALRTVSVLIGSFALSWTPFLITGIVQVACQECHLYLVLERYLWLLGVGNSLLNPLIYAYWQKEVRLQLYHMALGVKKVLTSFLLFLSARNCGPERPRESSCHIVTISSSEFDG
Experimental: Melanophores are maintained in culture as reported by Potenza, M. N. and Lerner, M. R., in Pigment Cell Research, Vol. 5, 372-378, 1992 and transfected with the RUP3 expression vector (pCMV) using electroporation. Following electroporation, the transfected cells are plated into 96 well plates for the assay. The cells are then allowed to grow for 48 hours in order to both recover from the electroporation procedure and attain maximal receptor expression levels.
On the assay day, the growth medium on the cells is replaced with serum-free buffer containing 10 nM melatonin. The melatonin acts via an endogenous Gi-coupled GPCR in the melanophores to lower intracellular cAMP levels. In response to lowered cAMP levels, the melanophores translocate their pigment to the center of the cell. The net effect of this is a significant decrease in the absorbance reading of the cell monolayer in the well, measured at […].
After a 1-hour incubation in melatonin, the cells become completely pigment-aggregated. At this point a baseline absorbance reading is collected. Serial dilutions of test compounds are then added to the plate and compounds that stimulate RUP3 produce increases in intracellular cAMP levels. In response to these increased cAMP levels, the melanophores translocate their pigment back into the cell periphery. After one hour, stimulated cells are fully pigment-dispersed. The cell monolayer in the dispersed state absorbs much more light in the 600-650 nm range. The measured increase in absorbance compared to the baseline reading allows one to quantitate the degree of receptor stimulation and plot a dose-response curve.
The compounds in the above examples were screened using the melanophore assay.

RUP3 [2] = molecular target: T2, RUP3 (Mesocricetus auratus, UniProt A0A1U8CD06); assay: Stimulation of cAMP in HIT-T15 cells (cAMP Flashplate Assay); assay type: cell-based, hamster; settings: Table 6
T2 construct: host or cells: HIT-T15 hamster insulin-producing cells
T2 sequence (A0A1U8CD06 1-334): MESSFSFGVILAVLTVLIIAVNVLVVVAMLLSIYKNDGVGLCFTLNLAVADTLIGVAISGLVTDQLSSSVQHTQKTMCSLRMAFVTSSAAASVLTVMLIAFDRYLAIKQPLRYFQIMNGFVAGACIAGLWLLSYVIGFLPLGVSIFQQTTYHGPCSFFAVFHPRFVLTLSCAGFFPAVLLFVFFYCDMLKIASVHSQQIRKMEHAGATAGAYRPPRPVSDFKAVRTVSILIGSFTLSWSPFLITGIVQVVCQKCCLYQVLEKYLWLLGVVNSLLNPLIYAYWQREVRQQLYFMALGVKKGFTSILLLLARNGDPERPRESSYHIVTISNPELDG
Experimental: HIT-T15 (ATCC CRL#1777) is an immortalized hamster insulin-producing cell line. These cells express RUP3 and therefore can be used to assess the ability of RUP3 ligands to stimulate or inhibit cAMP accumulation via its endogenously expressed receptor. In this assay, cells are grown to 80% confluence and then distributed into a 96-well Flashplate (50,000 cells/well) for detection of cAMP via a “cAMP Flashplate Assay” (NEN, Cat #SMP004). Briefly, cells are placed into anti-cAMP antibody-coated wells that contain either vehicle, the test ligand(s) at a concentration of interest, or 1 uM forskolin. The latter is a direct activator of adenylyl cyclase and serves as a positive control for stimulation of cAMP in HIT-T15 cells. All conditions are tested in triplicate. After a 1 hour incubation to allow for stimulation of cAMP, a Detection Mix containing ^125I-cAMP is added to each well and the plate is allowed to incubate for another 1 hour. The wells are then aspirated to remove unbound ^125I-cAMP. Bound ^125I-cAMP is detected using a Wallac Microbeta Counter. The amount of cAMP in each sample is determined by comparison to a standard curve, obtained by placing known concentrations of cAMP in some wells on the plate.
A number of the compounds disclosed herein were screened using the above described assay.

Male Sprague Dawley rats = assay: Oral glucose tolerance test (oGTT) in rats; assay type: in vivo, rat; settings: for % inhibition of glucose excursion: mean of six rats, dextrose 2 g/kg oral challenge; for effect on blood glucose after challenge with glucose: rats, p.o., oGTT
Experimental: Male Sprague Dawley rats weighing approximately 200 g-250 g were fasted for 15 hours and randomly grouped (n=6) to receive a RUP3 agonist (Compounds A78, A88 or A118) at 3, 10 or 30 mg/kg. Compounds were delivered orally via a gavage needle (p.o., volume 3 ml/kg). At time 0, levels of blood glucose were assessed using a glucometer (Elite XL, Bayer), and rats were administered either vehicle (20% hydroxypropyl-beta-cyclodextrin) or test compound. Thirty minutes after administration of test compound, levels of blood glucose were again assessed, and rats were administered dextrose orally at a dose of 2 g/kg. Blood glucose measurements were then taken 30 min, 60 min, and 120 min after this time.

Row | pEC50 (RUP3 [1]) | SMILES | also measured
1 | 6.52 | CC(C)(C)C(=O)N1CCC(Nc2ncnc(Nc3ccc(S(C)(=O)=O)cc3)c2[N+](=O)[O-])CC1 [Compound B4, 1-{4-[6-(4-Methanesulfonyl-phenylamino)-5-nitro-pyrimidin-4-ylamino]-piperidin-1-yl}-2,2-dimethyl-propan-1-one] | –
2 | 7.77 | CC(C)OC(=O)N1CCC(Oc2ncnc(Nc3ccc(S(C)(=O)=O)cc3)c2C#N)CC1 [Compound A39, 4-[5-Cyano-6-(4-methanesulfonyl-phenylamino)-pyrimidin-4-yloxy]-piperidine-1-carboxylic acid isopropyl ester] | –
3 | 7.36 | Cc1nc(C)c(S(=O)(=O)N2CCC(Oc3ncnc(Nc4ccc(S(C)(=O)=O)cc4)c3[N+](=O)[O-])CC2)s1 [Compound A32, {6-[1-(2,4-Dimethyl-thiazole-5-sulfonyl)-piperidin-4-yloxy]-5-nitro-pyrimidin-4-yl}-(4-methanesulfonyl-phenyl)-amine] | –
4 | 7.07 | CC(C)(C)C(=O)CN1CCC(Oc2ncnc(Nc3ccc(S(C)(=O)=O)cc3)c2[N+](=O)[O-])CC1 [Compound A11, 1-{4-[6-(4-Methanesulfonyl-phenylamino)-5-nitro-pyrimidin-4-yloxy]-piperidin-1-yl}-3,3-dimethyl-butan-2-one] | –
5 | 6.73 | CS(=O)(=O)c1ccc(Nc2ncnc(OC3CCN(C(=O)c4cccnc4)CC3)c2[N+](=O)[O-])cc1 [Compound A24, {4-[6-(4-Methanesulfonyl-phenylamino)-5-nitro-pyrimidin-4-yloxy]-piperidin-1-yl}-pyridin-3-yl-methanone] | –
6 | 6.62 | CC(C)(C)OC(=O)N1CCC(CCOc2ncnc(Nc3ccc(S(C)(=O)=O)cc3)c2[N+](=O)[O-])CC1 [Compound A14, 4-{2-[6-(4-Methanesulfonyl-phenylamino)-5-nitro-pyrimidin-4-yloxy]-ethyl}-piperidine-1-carboxylic acid tert-butyl ester] | –
7 | 7.12 | CS(=O)(=O)c1ccc(Nc2ncnc(OC3CCN(S(C)(=O)=O)CC3)c2[N+](=O)[O-])cc1 [Compound A27, (4-Methanesulfonyl-phenyl)-[6-(1-methanesulfonyl-piperidin-4-yloxy)-5-nitro-pyrimidin-4-yl]-amine] | –

More lines, now with the values behind:

Row | SMILES | pEC50 (RUP3 [1]) | also measured
8 | CC(C)(C)OC(=O)N1CCC(Oc2ncnc(Nc3ccc(S(C)(=O)=O)cc3)c2[N+](=O)[O-])CC1 [Compound A1, 4-[6-(4-Methanesulfonyl-phenylamino)-5-nitro-pyrimidin-4-yloxy]-piperidine-1-carboxylic acid tert-butyl ester] | – | pEC50 (RUP3 [2]): 7.70
9 | CC(C)OC(=O)N1CCC(Oc2ncnc(Nc3ccc(S(C)(=O)=O)cc3F)c2C#N)CC1 [Compound A78, 4-[5-Cyano-6-(2-fluoro-4-methanesulfonyl-phenylamino)-pyrimidin-4-yloxy]-piperidine-1-carboxylic acid isopropyl ester] | – | % inhibition of glucose excursion (Male Sprague Dawley rats; 10 mg/kg p.o.): 39%, (10); effect on blood glucose after challenge with glucose (Male Sprague Dawley rats): lowered blood glucose
10 | CC(C)(C)OC(=O)N1CCC(Oc2ncnc(Nc3ccc(S(C)(=O)=O)cc3F)c2[N+](=O)[O-])CC1 [Compound A34, 4-[6-(2-Fluoro-4-methanesulfonyl-phenylamino)-5-nitro-pyrimidin-4-yloxy]-piperidine-1-carboxylic acid tert-butyl ester] | – | pEC50 (RUP3 [2]): 7.57
11 | Cc1c(Oc2ccc(CCn3ccnc3)cc2F)ncnc1OC1CCN(C(=O)OC(C)C)CC1 [Compound C168, 4-{6-[2-Fluoro-4-(2-imidazol-1-yl-ethyl)-phenoxy]-5-methyl-pyrimidin-4-yloxy}-piperidine-1-carboxylic acid isopropyl ester] | 7.55 | –
12 | Cc1nc(Cl)ccc1Nc1ncnc(OC2CCN(C(=O)OC(C)C)CC2)c1C [Compound A90, 4-[6-(6-Chloro-2-methyl-pyridin-3-ylamino)-5-methyl-pyrimidin-4-yloxy]-piperidine-1-carboxylic acid isopropyl ester] | 7.28 | –
13 | CC(C)(C)OC(=O)N1CCC(Oc2ncnc(Nc3ccc(S(C)(=O)=O)cc3)c2C#N)CC1 [Compound A35, 4-[5-Cyano-6-(4-methanesulfonyl-phenylamino)-pyrimidin-4-yloxy]-piperidine-1-carboxylic acid tert-butyl ester] | – | pEC50 (RUP3 [2]): 7.23
14 | Cc1c(Nc2cc(F)c(C#N)cc2F)ncnc1OC1CCN(C(=O)OC(C)C)CC1 [Compound A88, 4-[6-(4-Cyano-2,5-difluoro-phenylamino)-5-methyl-pyrimidin-4-yloxy]-piperidine-1-carboxylic acid isopropyl ester] | – | % inhibition of glucose excursion (Male Sprague Dawley rats; 30 mg/kg p.o.): 38%, (30); effect on blood glucose after challenge with glucose (Male Sprague Dawley rats): lowered blood glucose
15 | Cc1c(OC2CCN(C(=O)OC(C)C)CC2)ccnc1Nc1ccc(S(C)(=O)=O)cc1F [Compound A118, 4-[2-(2-Fluoro-4-methanesulfonyl-phenylamino)-3-methyl-pyridin-4-yloxy]-piperidine-1-carboxylic acid isopropyl ester] | – | % inhibition of glucose excursion (Male Sprague Dawley rats; 30 mg/kg p.o.): 43%, (30); effect on blood glucose after challenge with glucose (Male Sprague Dawley rats): lowered blood glucose
